Columns and labels:
[1] = system: PARP, Caspase 9 and p53 in Caki-1 cells; assay: Western blot of apoptosis related proteins; assay type: cell-based, human
Excerpt: Results also confirm elevated expression of p53 (a tumor suppressor) in human kidney cancer Caki cells (see panel D in FIG. 9).

mouse kidney = assay: Kidney histopathology (hematoxylin and eosin); assay type: in vivo; conditions: normal kidney of mice implanted with kidney tumors
Caki-1 = assay: Renal cancer cell growth IC50 (crystal violet); assay type: cell-based, human; conditions: Example 11
Excerpt: Exemplary Embodiments are generally performed as follows, unless otherwise noted. Simvastatin is purchased from Ark Pharm, Inc. (Arlington Heights, IL). Cisplatin (CIS) is purchased from MedKoo Biosciences, Inc. (Chapel Hill, NC). Dihydroartemisinin is purchased from TCI America (Portland, OR). All other chemicals and reagents are purchased from standard sources such as Sigma-Aldrich and/or VWR and are of highest quality available. Puromycin dihydrochloride was purchased from Alfa Aesar (Tewksbury, MA). Deionized water ([…]) used for making solutions is obtained from Milli-Q Direct Ultrapure Water System from Millipore (Billerica, MA, USA). All intermediates are characterized by 1H NMR and mass analysis and the purity of compounds are analyzed by HPLC. 1H NMR data are collected on Bruker 400 MHz spectrometers using standard parameters; chemical shifts are reported in ppm (δ) in reference to residual non-deuterated solvent. ESI mass spectroscopy analysis is performed using a Thermo Fisher LTQ Orbitrap Elite system. IC50 is the half maximal inhibitory concentration and determined is determined by crystal violet assay unless otherwise noted.
(§1) The crystal violet assay is performed as follows, unless otherwise noted. Cell lines are supplemented with RPMI 1640 medium, 10% fetal bovine serum, 1% PenStrep, and placed in a humidified atmosphere containing 5% CO2 at 37° C. 5,000 cells/well renal cancer cells and 10,000 cells/well lymphoma cells are seeded in 96 well plates in 100 microliter medium/per well for 24 h. […] Renal cancer cells are fixed with 3.7% paraformaldehyde for 15 minutes and are stained with Crystal violet solution (0.5% in 25% methanol) for 30 minutes. After rinsing with water cell layers are dried and decolorized with Sorenson citrate with shaking for 20 minutes. Light absorption of the extracted supernatant is read at 595 nm. Lymphoma cell growth was evaluated using MTT and cells are incubated for 4 hours. 100 microliters of isopropanol is added, and the extracted supernatant fraction is read at absorption maximum of 595 nm.
Standard cell culture conditions typically are RPMI 1640 medium, 10% fetal bovine serum, 1% PenStrep, and are performed in a humidified atmosphere containing 5% CO2 at 37° C. Generally, 5,000 cells/well-10,000 cells/well are seeded in 96 well plates in 100 microliter medium/per well for 24 h, or as described in Example 16, unless otherwise noted. Certain cells require specialized media, growth factors, antibiotics, or culture condition adjustments, as will be apparent to a person of ordinary skill in the art.
as §1, with “Cell” for “The crystal violet assay is performed as follows, unless otherwise noted. Cell”, “cultured as follows. […]” for “supplemented with RPMI 1640 medium, 10% fetal bovine serum, 1% PenStrep, and placed in a humidified atmosphere containing 5% CO2 at 37° C.”, “is” for “was”

[2] = system: normal mouse kidney and liver; assay: Immunohistochemical staining of normal kidney and liver; assay type: in vivo; conditions: mice harbored with human Burkitt's lymphoma
Excerpt: (§2) These normal kidney and liver tissues were obtained from mice harbored with human Burkitt's lymphoma.

[3] = system: Namalwa human lymphoma xenograft tumors; assay: Immunohistochemical staining of xenograft tumors; assay type: in vivo; conditions: Namalwa xenograft tumors of mice
Excerpt: as §2

[4] = system: caspase-3 and-7 activities in Caki-1 cells; assay: CaspaseGlo 3/7 luminescent apoptosis assay; assay type: cell-based, human; conditions: 24 hours after treatment
Excerpt: Caspase-Glo® 3/7 Assay (Promega) is a homogeneous, luminescent assay that measures caspase-3 and-7 activities that provides a luminogenic caspase-3/7 substrate, which contains the tetrapeptide sequence DEVD, in a reagent optimized for caspase activity, luciferase activity and cell lysis. A single Caspase-Glo 3/7 Reagent in an “add-mix measure” format results in cell lysis, followed by caspase cleavage of the substrate and generation of a “glow-type” luminescent signal, produced by luciferase. Luminescence is proportional to the amount of caspase activity present. Caspase-Glo® 3/7 Reagent is prepared, mixed and the reagent and the 96-well plate containing cells are equilibrated to room temperature. […] The plate is incubated at room temperature for 30 minutes to 3 hours, depending upon the cell culture system (optimal incubation period determined empirically). Luminescence of each sample is measured in a plate-reading luminometer. […]
B-cell lymphoma cells (Namalwa) are cultured in RPMI 1640, 10% fetal bovine serum, 1% PenStrep, and placed in a humidified atmosphere containing 5% CO2 at 37° C. […] 100 microliters of Caspase-Glo 3/7 assay is added and luminescence is then read. […] 100 microliters of Caspase-Glo 3/7 assay is added and luminescence is then read.

CC1(C)C(/C=C/C2=C(Cl)C(=C/C=C3/N(CCCCCC(=O)[O][Pt]([NH2])([NH2])([OH])([Cl])[Cl])c4ccccc4C3(C)C)/CCC2)=[N+](CCCCS(=O)(=O)[O-])c2ccccc21 [DZ-CIS ester]
Expression of apoptosis related proteins PARP, Caspase 9 and p53 [1]: induces elevation of apoptosis related proteins
Kidney damage, histopathology (mouse kidney): protects from more severe kidney damage
In vitro growth of Caki-1 (Caki-1): inhibited by DZ-CIS
Apoptosis markers (cleaved caspas-3 and M30) / damage in normal kidney and liver [2]: protects normal kidney and liver from damage by CIS
Apoptosis in xenograft tumors (cleaved caspase-3 and M30) [3]: increased apoptosis
Cell proliferation in xenograft tumors (Ki67) [3]: decreased cell proliferation
Level of apoptosis, CaspaseGlo 3/7 [4]: increased apoptosis

Reference: patent publication US12121510B2 (Cedars-Sinai Medical Center, priority 2016, dated 2024)
